Data as given in ChEMBL document CHEMBL1148354, “Dye-labeled benzodiazepines: development of small ligands for receptor binding studies using fluorescence correlation spectroscopy” (J Med Chem, 2004).
“And” between values parts separate entries of the source, which are not always exact repeats. Equal entries are not always repeated.

Key:
[1] = biological target: T1, GABA-A receptor; anion channel (Rattus norvegicus) (UniProt O09028+P15431+P18506+P18508+P19969+P20236+P23574+P23576+P28471+P28473+P30191+P62813+P63079+P63138+Q91ZM7+Q9ES14); experiment: Saturation binding for benzodiazepine receptor of rat hippocampal neurons; format: tissue-based; conditions: Hippocampus
[2] = biological target: GABA-A receptor; anion channel; experiment: Binding affinity for GABA-A benzodiazepine receptor of rat hippocampal neurons; format: tissue-based, Hippocampus
[3] = biological target: T1, GABA-A receptor; anion channel (Rattus norvegicus); experiment: Non-specific binding to GABA-A benzodiazepine receptor of rat hippocampal neurons after co-incubation with 1 uM midazolam (range is 7-10%); format: tissue-based; conditions: Hippocampus
[4] = biological target: T1, GABA-A receptor; anion channel (Rattus norvegicus); experiment: Percent binding to GABA-A benzodiazepine receptor of rat hippocampal neurons at 2 nM; format: tissue-based; conditions: Hippocampus

## CC1N=c2c(cc3c(c2S(=O)(=O)O)Oc2c(cc4c(c2S(=O)(=O)O)NC(C)C4(C)C)C=3c2ccc(C(=O)NCCN3C(=O)CN=C(c4ccccc4F)c4cc(Cl)ccc43)cc2)C1(C)C (centres undefined)
[1]
  Concentration: 120 nM
[2]
  Kd: 97.2 nM and 9.9 nM
[3]
  Binding: 10%
[4]
  Binding: 90%
